According to patent US20250296971A1, “GASTRIC INHIBITORY PEPTIDE RECEPTOR LIGANDS” (priority 2021, published 2025):
*1 amine or outer side, *2 acyl side, *3 side chain or, on linkers, in order; H or OH if unused. Where a SMILES comes first, the peptide text is derived from it. Bridges are numbered along the chain shown (N, C = ends). [ ]: non-standard residue; d: D form. The star is where a group is joined. X5 = NC(=O)[C@H](CCCCNC(=O)CN1CCN(CC(=O)O)CCN(CC(=O)O)CCN(CC(=O)O)CC1)NC(=O)CCC(=O)NCCCOCCOCCOCCCN*; X3 = O=C(O)CN1CCN(CC(=O)O)CCN(CC(=O)NCCCOCCOCCOCCCN*)CCN(CC(=O)O)CC1; DOTA = O=C(O)CN1CCN(CC(=O)O)CCN(CC(=O)*)CCN(CC(=O)O)CC1; Pro(cis-4-NHAc) = CC(=O)N[C@@H]1CN[C@H](C(=O)O)C1; Trp(5-Cl) = N[C@@H](Cc1c[nH]c2ccc(Cl)cc12)C(=O)O; Pyridine(2,6-diCH2) = c1cc(C[*:1])nc(C[*:2])c1; Pro(4R-NH2) = N[C@H]1CN[C@H](C(=O)O)C1; X6 = c1cc(CSCCN[*:2])nc(C[*:1])c1; X7 = c1cc(CSCCN[*:2])cc(C[*:1])c1; Hyp = O=C(O)[C@@H]1C[C@@H](O)CN1; X1 = O=C(CN1CCC(N[*:1])CC1)[*:2]; Suc = O=C(CCC(=O)[*:2])[*:1]; Api = NC1(C(=O)O)CCNCC1; Thp = NC1(C(=O)O)CCOCC1; Aib = CC(C)(N)C(=O)O

What was measured:
[1] = target: T1, human GIP receptor (bioGIPR) (Homo sapiens, UniProt P48546); test: Surface plasmon resonance (SPR) based binding assay; settings: Single Cycle Kinetic mode, 25° C.; for t1/2 Category: SPR dissociation half-life; for Kd: SPR, 1:1 Langmuir binding model, read-out: pKD Category (converted)
T1 construct: Biotinylate extracellular of the human GIP receptor (bioGIPR, Proteros biostructures GmbH, lot #02/2b); purchased Proteros biostructures GmbH lot #02/2b
T1 sequence (P48546 22-138 limits assumed): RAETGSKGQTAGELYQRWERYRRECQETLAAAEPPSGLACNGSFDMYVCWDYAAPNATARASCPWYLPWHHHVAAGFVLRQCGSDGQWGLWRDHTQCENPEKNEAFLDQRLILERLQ
How it was run: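 Binding was measured at 25 °C by single-cycle kinetics against a reference flow cell, with blank-run and drift correction, after capturing biotinylated GIPR extracellular domain to ~3500 RU. Running buffer: HBST, 0.1% DMSO. A 1:1 Langmuir model gave kinetic rates, KD, t1/2 and pKD.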

[2] = target: T2, GIPR (CHO-K1-hGIPR cells) (Homo sapiens, UniProt P48546); test: FACS binding assay; settings: competition with 20 nM GIP-057, 4° C., 1 hour, read-out: pIC50 Category (converted)
T2 construct: host or cells: CHO-K1
T2 sequence (P48546 22-466): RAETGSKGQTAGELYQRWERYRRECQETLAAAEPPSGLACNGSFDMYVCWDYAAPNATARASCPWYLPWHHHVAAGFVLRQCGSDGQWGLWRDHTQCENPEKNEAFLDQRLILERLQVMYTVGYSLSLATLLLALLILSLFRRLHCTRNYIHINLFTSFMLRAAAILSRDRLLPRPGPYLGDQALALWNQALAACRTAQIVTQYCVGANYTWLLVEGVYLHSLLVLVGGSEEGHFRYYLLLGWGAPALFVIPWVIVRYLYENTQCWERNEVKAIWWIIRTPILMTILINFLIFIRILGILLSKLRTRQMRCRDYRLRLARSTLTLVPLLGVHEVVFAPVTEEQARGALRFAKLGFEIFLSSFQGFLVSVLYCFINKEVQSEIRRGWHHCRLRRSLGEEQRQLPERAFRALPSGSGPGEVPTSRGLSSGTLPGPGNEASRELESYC
How it was run: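 Peptide binding read by flow cytometry as APC-channel median fluorescence, fitted with a four-parameter logistic to yield EC50 or IC50. Cells were hGIPR-transfected CHO-K1 in PBS with 1% FCS, detected with 1 μg/mL APC-streptavidin, 30 min on ice.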

Row | Compound | t1/2 Category [1] | Kd [1] [nM] | IC50 [2] [nM]
1 | CC[C@H](C)[C@@H]1NC(=O)[C@H](CC(C)C)NC(=O)C2(CCOCC2)NC(=O)[C@@H](NC(=O)[C@@H](CC(C)C)NC(=O)[C@H](CCC(=O)O)NC(=O)[C@@H]2C[C@@H](O)CN2C(=O)[C@H](Cc2c[nH]c3ccc(Cl)cc23)NC(=O)[C@H](Cc2c[nH]c3ccccc23)NC(=O)CCC(=O)O)CSCc2cccc(n2)CSC[C@@H](C(=O)NCCCOCCOCCOCCCNC(=O)CCC(=O)N[C@@H](CCCCNC(=O)CN2CCN(CC(=O)O)CCN(CC(=O)O)CCN(CC(=O)O)CC2)C(N)=O)NC1=O [GIP-108, HO-Succinyl-Trp-5Clw-Hyp-Glu-leu-[Cys(2Lut)-Thp-Leu-Ile-Cys]-Ttds-Lys(DOTA)-NH2] (Suc-W[Trp(5-Cl)][Hyp]E[dL]C[Thp]LIC-X5; linker 6-10 via Pyridine(2,6-diCH2)) | A (t1/2 values>15 min) | < 1 | < 10
2 | CC[C@H](C)[C@@H]1NC(=O)[C@H](CC(C)C)NC(=O)C(C)(C)NC(=O)[C@@H](NC(=O)[C@@H](CC(C)C)NC(=O)[C@H](CCC(=O)O)NC(=O)[C@@H]2C[C@H](NC(C)=O)CN2C(=O)[C@H](Cc2c[nH]c3ccc(Cl)cc23)NC(=O)[C@H](Cc2c[nH]c3ccccc23)NC(=O)[C@H](CC(=O)O)NC(=O)CCC(=O)NCCCOCCOCCOCCCNC(=O)CN2CCN(CC(=O)O)CCN(CC(=O)O)CCN(CC(=O)O)CC2)CSCc2cccc(c2)CSCCNC1=O [GIP-111, DOTA-Ttds-Asp-Trp-5Clw-4Ap(Ac)-Glu-leu-[Cys(3MeBn)-Aib-Leu-Ile-AET]] ({X3-Suc}-DW[Trp(5-Cl)][Pro(cis-4-NHAc)]E[dL]C[Aib]LI; linker 7-C via X7) | A (t1/2 values>15 min) | 1 to 7.94 | < 10

Other lines, results leading:

Row | t1/2 Category [1] | Kd [1] [nM] | IC50 [2] [nM] | Compound
3 | A (t1/2 values>15 min) | < 1 | < 10 | CC[C@H](C)[C@@H]1NC(=O)[C@H](CC(C)C)NC(=O)C2(CCOCC2)NC(=O)[C@@H](NC(=O)[C@@H](CC(C)C)NC(=O)[C@H](CCC(=O)O)NC(=O)[C@@H]2C[C@@H](O)CN2C(=O)[C@H](Cc2c[nH]c3ccc(Cl)cc23)NC(=O)[C@H](Cc2c[nH]c3ccccc23)NC(=O)CCC(=O)O)CSCc2cccc(n2)CSC[C@@H](C(=O)NC2CCN(CC(=O)N[C@@H](CCCCNC(=O)CN3CCN(CC(=O)O)CCN(CC(=O)O)CCN(CC(=O)O)CC3)C(N)=O)CC2)NC1=O [GIP-109, HO-Succinyl-Trp-5Clw-Hyp-Glu-leu-[Cys(2Lut)-Thp-Leu-Ile-Cys]-APAc-Lys(DOTA)-NH2] (Suc-W[Trp(5-Cl)][Hyp]E[dL]C[Thp]LIC[X1]K(DOTA)-NH2; linker 6-10 via Pyridine(2,6-diCH2))
4 | A (t1/2 values>15 min) | < 1 | < 10 | CC[C@H](C)[C@@H]1NC(=O)[C@H](CC(C)C)NC(=O)C2(CCN(C(=O)CN3CCN(CC(=O)O)CCN(CC(=O)O)CCN(CC(=O)O)CC3)CC2)NC(=O)[C@@H](NC(=O)[C@@H](CC(C)C)NC(=O)[C@H](CCC(=O)O)NC(=O)[C@@H]2C[C@@H](O)CN2C(=O)[C@H](Cc2c[nH]c3ccc(Cl)cc23)NC(=O)[C@H](Cc2c[nH]c3ccccc23)NC(=O)CCC(=O)O)CSCc2cccc(n2)CSCCNC1=O [GIP-110, HO-Succinyl-Trp-5Clw-Hyp-Glu-leu-[Cys(2Lut)-Apc(DOTA)-Leu-Ile-AET]] (Suc-W[Trp(5-Cl)][Hyp]E[dL]C[Api](DOTA)LI; linker 6-C via X6)
5 | A (t1/2 values>15 min) | < 1 | < 10 | CC[C@H](C)[C@@H]1NC(=O)[C@H](CC(C)C)NC(=O)C2(CCNCC2)NC(=O)[C@@H](NC(=O)[C@@H](CC(C)C)NC(=O)[C@H](CCC(=O)O)NC(=O)[C@@H]2C[C@@H](N)CN2C(=O)[C@H](Cc2c[nH]c3ccc(Cl)cc23)NC(=O)[C@H](Cc2c[nH]c3ccccc23)NC(=O)[C@H](CC(=O)O)NC(=O)CCC(=O)NCCCOCCOCCOCCCNC(=O)CN2CCN(CC(=O)O)CCN(CC(=O)O)CCN(CC(=O)O)CC2)CSCc2cccc(c2)CSCCNC1=O [GIP-112, DOTA-Ttds-Asp-Trp-5Clw-Tap-Glu-leu-[Cys(2Lut)-Apc-Leu-Ile-AET]] ({X3-Suc}-DW[Trp(5-Cl)][Pro(4R-NH2)]E[dL]C[Api]LI; linker 7-C via X7)
